In patent US9708370B2, “Azapeptides as CD36 binding compounds” (VALORISATION-RECHERCHE, LIMITED PARTNERSHIP, priority 2007, dated 2017):
Where two headings read alike, the source gives them in different places. Starred links: 1 amine or outer side, 2 acyl side, 3 side chain; linkers in the order of their positions; H or OH if unused. Non-standard residues stand in square brackets, D forms with d. Residues, ends and D or L forms follow the SMILES beside them. *: point of attachment. azaTyr = O=C(N(Cc1ccc(O)cc1)N[*:1])[*:2]; azaLeu = CC(C)CN(N[*:1])C(=O)[*:2]; Hydrocinnamoyl = O=C(CCc1ccccc1)*

Columns and labels:
CD36 = CD36 (Rattus norvegicus (Rat), UniProt Q07969); assay: CD36 receptor covalent photolabelling binding assay, competition with [125I]Tyr-Bpa-Ala-hexarelin on rat cardiac membranes; conditions: for binding activity/affinity at CD36 in words: compared with parent peptide GHRP-6 or hexarelin
Protocol: The hearts from Sprague Dawley rats (300 g-325 g) from Charles River, used as a source of cardiac membranes, were prepared as follows: the heart was washed with ice-cold saline, and fatty and connective tissue was removed. The tissue was cut into small pieces with scissors and placed in a Sorvall centrifuge tube containing 5 ml/g of fresh tissue of Buffer A (10 mM NaHCO3, 5 mM NaN3, 10 μM Pefabloc, 0.1 μM Aprotinin, 1 μM Pepstatin A, 1 μM Leupeptin, pH 7.0). The suspension was homogenized with a Polytron at low speed, 3×15 sec. The homogenate was centrifuged at 8 700×g for 20 min and the supernatant was put on ice. The pellet was resuspended and homogenized with a Glass-teflon Potter by 5 strokes. The homogenate was centrifuged at 8 700×g for 10 min and this supernatant was combined with the first supernatant. The supernatant fluid was centrifuged at 35 000×g for 20 min, yielding a second pellet fraction that was suspended thoroughly in a glass homogenizer with a Teflon pestle in 20 ml/g of fresh tissue of Buffer B (20 mM Tris-maleate, 0.6M KCl, pH 6.8). The resulting suspension was centrifuged again at 35 000×g for 60 min. The third pellet fraction was resuspended thoroughly in a glass homogenizer with a Teflon pestle in 20 ml/g of fresh tissue of Buffer C (10 mM Tris/HCl buffer pH 7.4) followed with another centrifugation at 35 000×g for 60 min. The harvested precipitate was then suspended in a small volume (1-2 ml/g of fresh tissue) of 50 mM Tris/HCl buffer pH 7.4) containing 2 mM EGTA. The resulting membrane preparation was frozen at −80° C. Protein concentration was determined with bicinchoninic acid (BCA) method, using BSA as standard.
The iodination procedure was performed in the darkness. […] The reaction was started by adding 5 ul (3 nmol) of H2O2. The incubation was carried out at 22° C. for 5 min. The addition of H2O2 was repeated twice with 5 min incubation each time. The reaction was stopped with the addition of 1.4 ml of 0.1% TFA. The iodinated peptide was purified on a reverse-phase Vydac C18 column with a 60 min linear gradient (1 ml/min) from 20% to 50% acetonitrile (90%) in 0.1% TFA (10%).
Nonspecific binding was defined as binding not displaced by 50 μM corresponding peptide. All peptide containing solutions were diluted in Buffer B. Buffer A and B were degassed under vacuum, and used in capped tubes in order to minimize lipid peroxydation. Before the incubation period, all tubes were put under a low flow of nitrogen. All material was kept on ice and the binding assay was performed in darkness. After an incubation period of 60 min at 22° C. […] After centrifugation at 12 000×g for 15 minutes, the pellets were resuspended in 150 μl of sample buffer (62 mM Tris-HCl, pH 6.8, 2% SDS, 10% glycerol, 15% 2-mercapto-ethanol, and 0.05% bromophenol blue), and boiled for 5 min prior to being subjected to electrophoresis. Proteins (200 μg/100 μl) were separated on 7.5% SDS-PAGE (45 V overnight). The gels resulting from SDS/PAGE were fixed, colored in Coomassie Brilliant Blue R-250, dried, exposed to a storage phosphor intensifying screen (Amersham Biosciences), and analysed by using a Typhoon PhosphorImager (Amersham Biosciences) and ImageQuant 5.0 software to establish competition curves. Protein bands were quantified by densitometry. The covalent binding signal of 87 kDa was analyzed by densitometry using Typhoon Phospholmager™ (Typhoon, Amersham Biosciences) and ImageQuant 5.0® software to set competition curves.
Specific binding activities were defined as the ratio of the density of the protein band to that of a non-specific band. Results are expressed as the percentage of the density of the […] to that of the total binding band.

human GHS-R1a = human GHS-R1a (Homo sapiens (Human), UniProt Q92847); assay: GHS-R1a binding assay, competition with 125I-ghrelin on membranes of LLC-PK1 cells expressing human GHS-R1a
[1] = test system: vascular sprouting of aortic endothelium (aortic rings); assay: Inhibition of microvascular sprouting from Matrigel-embedded aortic explants; type: cell-based, mice; conditions: preliminary data; compared with GHRP-6
Excerpt: FIG. 1 illustrates disruption of vascular sprouting of aortic endothelium by azapeptide compound DBG178. Sprouting aortic endothelium (Von Willebrand factor positive) expressing CD36 is shown in the upper row of FIG. 1a. Vascular sprouting of aortic rings from C57BL/6 and CD36 null mice in the presence of DBG 178 at 10^−7M is shown in the lower row of FIG. 1a. Histograms of microvascular sprouts areas (mean±s.e.m) from aortic explants of C57BL/6 and CD36 null mice exposed to DBG concentrations from 10^−8 to 10^−6 M p<0.01 compared with control (Ctl) is shown in FIG. 1b.
Aortas were excised from 10-week-old male C57/Bl6+/+ and CD36−/− mice of C57/Bl6 background. The fibroadipose tissue was removed and aortas were sectioned into 2-mm-long cross-sections. The +/+ and −/− rings were covered by 50 μl of Matrigel and cultured for 4 days in EGM-2 medium (Clonetics Corp.). Explants were then exposed to vehicle alone or in presence of an azapeptide prototype DBG178 at the indicated concentrations (10^−8 to 10^−6 M) from day 4 to day 6 of culture in EGM-2 medium. Pictures of each individual explant were taken at day 4 and day 6 and EC growth was measured as the surface covered at day 6 minus the surface covered at day 4 Data were subject to analysis of variance (ANOVA) followed by Dunnet's post test to test for differences among groups. Outgrowing cells were characterized by double-labelling with monoclonal vWF antibody (1:100, Dako) and polyclonal CD36 (1:100, Santa Cruz) after acetone fixation using their respective alexa coupled secondary antibodies.

[2] = Table 6, read-out: IC50 Binding CD36
[3] = Table 5, read-out: IC50 Binding GHS-R1a

Sequence of CD36 (Q07969 whole entry): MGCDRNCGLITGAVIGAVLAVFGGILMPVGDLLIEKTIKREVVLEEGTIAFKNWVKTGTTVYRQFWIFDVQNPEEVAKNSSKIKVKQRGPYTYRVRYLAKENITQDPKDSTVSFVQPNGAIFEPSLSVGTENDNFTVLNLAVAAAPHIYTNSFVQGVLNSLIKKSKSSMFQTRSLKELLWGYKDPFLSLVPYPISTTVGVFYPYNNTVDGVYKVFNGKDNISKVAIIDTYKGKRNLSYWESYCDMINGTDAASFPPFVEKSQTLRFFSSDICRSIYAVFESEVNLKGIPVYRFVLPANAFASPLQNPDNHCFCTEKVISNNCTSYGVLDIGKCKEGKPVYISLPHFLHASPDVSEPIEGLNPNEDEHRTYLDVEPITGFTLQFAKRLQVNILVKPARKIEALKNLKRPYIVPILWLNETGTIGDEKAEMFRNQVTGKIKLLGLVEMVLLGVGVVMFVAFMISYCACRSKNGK
Sequence of human GHS-R1a (Q92847 whole entry): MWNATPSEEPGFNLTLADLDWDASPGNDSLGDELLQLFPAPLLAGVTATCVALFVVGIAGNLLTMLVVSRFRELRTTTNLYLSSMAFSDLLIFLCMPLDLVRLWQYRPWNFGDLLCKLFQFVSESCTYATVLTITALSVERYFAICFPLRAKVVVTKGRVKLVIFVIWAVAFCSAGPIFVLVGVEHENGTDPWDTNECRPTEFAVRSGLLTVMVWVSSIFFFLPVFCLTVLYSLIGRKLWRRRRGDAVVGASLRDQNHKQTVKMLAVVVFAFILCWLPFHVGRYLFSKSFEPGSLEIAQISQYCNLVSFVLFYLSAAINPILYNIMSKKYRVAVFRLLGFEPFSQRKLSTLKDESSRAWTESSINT

Row | Structure (SMILES) | IC50 (CD36; Table 3, rat cardiac membranes, [125I]Tyr-Bpa-Ala-hexarelin as radioligand, read-out: IC50, binding affinity of aza peptide derivatives towards CD36) | binding activity/affinity at CD36 in words (CD36) | IC50 (human GHS-R1a; Table 4, LLCPK-1 membranes overexpressing GHS-R1a, radioiodinated (1-28) rat ghrelin as tracer, read-out: EC50 (text: IC50 values from competition curves in GHS-R1a radioreceptor assay)) | ex vivo inhibition of neovascularization in aortic rings [1] | IC50 (CD36; [2]) | IC50 (human GHS-R1a; [3]) | binding affinity for GHS-R1a receptor in words (human GHS-R1a; compared with GHRP-6)
1 | CC(C)CN(NC(=O)[C@@H](Cc1c[nH]c2ccccc12)NC(=O)[C@@H](N)Cc1cnc[nH]1)C(=O)N[C@@H](Cc1c[nH]c2ccccc12)C(=O)N[C@H](Cc1ccccc1)C(=O)N[C@@H](CCCCN)C(N)=O [DBG201-A, His-D-Trp-azaLeu-Trp-D-Phe-Lys-NH2] (H-H[dW][azaLeu]W[dF]K-NH2) | 2890 nM | retained significant activity similar to the parent peptide | 1200 nM | most potent inhibitory effect | – | – | –
2 | C[C@H](N)C(=O)N[C@H](Cc1c[nH]c2ccccc12)C(=O)N[C@@H](C)C(=O)NN(Cc1ccc(O)cc1)C(=O)N[C@H](Cc1ccccc1)C(=O)N[C@@H](CCCCN)C(N)=O [ZS555-F40, Ala-D-Trp-Ala-azaTyr-D-Phe-Lys-NH2] (H-A[dW]A[azaTyr][dF]K-NH2) | – | without major change | – | – | 2950 nM | > 10000 nM | decreased drastically
3 | C[C@H](NC(=O)[C@@H](Cc1c[nH]c2ccccc12)NC(=O)CCc1ccccc1)C(=O)NN(Cc1ccc(O)cc1)C(=O)N[C@H](Cc1ccccc1)C(=O)N[C@@H](CCCCN)C(N)=O [ZS556, Hydrocinnamyl-D-Trp-Ala-AzaTyr-D-Phe-Lys-NH2] (Hydrocinnamoyl-[dW]A[azaTyr][dF]K-NH2) | – | – | – | – | 32500 nM | > 10000 nM | –
